In PMC9154793, “Design, synthesis, and biological evaluation of triazole-pyrimidine-methylbenzonitrile derivatives as dual A2A/A2B adenosine receptor antagonists” (Journal of Enzyme Inhibition and Medicinal Chemistry, 2022):

Molecular target: human A2A AR (Homo sapiens, UniProt P29274)
Assay: A2A AR radioligand binding assay ([3H]-ZM241385, HEK-293 cell membranes)
Conditions: hA2A AR, HEK-293 membranes, [3H]-ZM241385; mean ± SEM; read-out: Radioligand binding assays IC50
Description: We further tested the IC50 values of compounds 7f, 7i, 17, 22, and AB928 in inhibiting the cAMP production of CHO cells expressing hA2A AR or hA2B AR (Table 2). […] In addition, the competitive binding experiments of compounds 7f, 7i, and AB928 were performed using membrane preparation of HEK-293 cells expressing human A2A AR (Table 3).
The target compounds were tested to evaluate their affinity for the A2A AR on HEK-293 cell membranes expressing human A2A AR. [^3H]-ZM241385 was used as a radioligand. The assay buffer (50 mM Tris-HCl, pH 7.4; 10 mM MgCl2; 1 mM EDTA; 1 μg/ml adenosine deaminase), wash buffer (50 mM Tris-HCl, pH 7.4; 154 mM NaCl), and 0.5% PEI solution were prepared and stored at 4 °C for use. The affinities were tested following the procedure reported by Hu et al[4].

Sequence of human A2A AR (P29274 whole entry): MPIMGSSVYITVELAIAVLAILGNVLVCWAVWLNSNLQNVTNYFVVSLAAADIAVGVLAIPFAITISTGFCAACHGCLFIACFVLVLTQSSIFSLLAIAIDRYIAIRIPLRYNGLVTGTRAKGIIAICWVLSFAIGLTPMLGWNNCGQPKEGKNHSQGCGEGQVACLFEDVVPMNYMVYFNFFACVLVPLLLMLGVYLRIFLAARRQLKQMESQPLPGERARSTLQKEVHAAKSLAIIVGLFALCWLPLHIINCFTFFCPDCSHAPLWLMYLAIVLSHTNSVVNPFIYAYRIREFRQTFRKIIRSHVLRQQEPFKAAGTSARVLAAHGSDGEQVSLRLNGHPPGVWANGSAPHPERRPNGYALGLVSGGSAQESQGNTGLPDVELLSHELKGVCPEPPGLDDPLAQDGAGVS

| IC50 [nM] | Compound |
| --- | --- |
| 158 ± 56.4 | Cc1c(C#N)cccc1-c1cc(-c2cn(Cc3cccc(C#N)n3)nn2)nc(N)n1 [Compound 7f, 6-((4-(2-Amino-6-(3-cyano-2-methylphenyl)pyrimidin-4-yl)-1H-1,2,3-triazol-1-yl)methyl)picolinonitrile] |
| 63.6 ± 13 | Cc1c(C#N)cccc1-c1cc(-c2cn(Cc3cccc(C(N)=O)n3)nn2)nc(N)n1 [Compound 7i, 6-((4-(2-Amino-6-(3-cyano-2-methylphenyl)pyrimidin-4-yl)-1H-1,2,3-triazol-1-yl)methyl)picolinamide] |
